In ChEMBL document CHEMBL3885861, “Open TG-GATES”:

Species: Rattus norvegicus
Experiment: Open TG-GATES - Regimen: Single
Assay type: toxicity, organism-based, Sprague-Dawley
Design: regimen Single, gender Male, age 6 weeks
Settings: in vivo, po, 400 mg/kg, route gavage, dose level High; for APTT / Bas / Eos / Fbg / Hb / Ht / Lym / MCH / MCHC / MCV / Mono / Neu / PT / Plat / RBC / Ret / WBC: tissue Blood; for KIDNEY_L / KIDNEY_R / KIDNEY_TOTAL: tissue Kidney; for LIVER: tissue Liver; for A/G / ALP / ALT / AST / BUN / CRE / Ca / Cl / DBIL / GLC / IP / K / LDH / Na / PL / RALB / TBIL / TC / TG / TP / gamma-GTP: tissue Plasma

COc1ccc(Cc2nccc3cc(OC)c(OC)cc23)cc1OC [PAPAVERINE]
TERMINAL_BW (3 h): 228.2 g | APTT (3 h): 23.4 s | Bas (3 h): 0% | Eos (3 h): 1% | Fbg (3 h): 306.8 mg/dL | Hb (3 h): 13.4 g/dL | Ht (3 h): 40.3% | Lym (3 h): 79% | MCH (3 h): 20.7 pg | MCHC (3 h): 33.3% | MCV (3 h): 62 fL | Mono (3 h): 2.4% | Neu (3 h): 16.2% | PT (3 h): 15.7 s | Plat (3 h): 119 x10_4/uL | RBC (3 h): 649.8 x10_4/ul | Ret (3 h): 7.4% | WBC (3 h): 64.1 x10_2/uL | KIDNEY_L (3 h): 1 g | KIDNEY_R (3 h): 1 g | KIDNEY_TOTAL (3 h): 2 g | LIVER (3 h): 9.9 g | A/G (3 h): 1.2 | ALP (3 h): 1181 IU/L | ALT (3 h): 39 IU/L | AST (3 h): 66.8 IU/L | BUN (3 h): 11.4 mg/dL | CRE (3 h): 0.1 mg/dL | Ca (3 h): 10.8 mg/dL | Cl (3 h): 107.2 meq/L | DBIL (3 h): 0 mg/dL | GLC (3 h): 199.4 mg/dL | IP (3 h): 9.7 mg/dL | K (3 h): 4.1 meq/L | LDH (3 h): 182 IU/L | Na (3 h): 140.2 meq/L | PL (3 h): 124 mg/dL | RALB (3 h): 2.9 g/dL | TBIL (3 h): 0.014 mg/dL | TC (3 h): 75.2 mg/dL | TG (3 h): 34 mg/dL | TP (3 h): 5.4 g/dL | gamma-GTP (3 h): 2.4 IU/L | TERMINAL_BW (6 h): 223.8 g | APTT (6 h): 22 s | Bas (6 h): 0% | Eos (6 h): 0.8% | Fbg (6 h): 310.8 mg/dL | Hb (6 h): 13.1 g/dL | Ht (6 h): 40% | Lym (6 h): 78% | MCH (6 h): 20.6 pg | MCHC (6 h): 32.9% | MCV (6 h): 62.7 fL | Mono (6 h): 3.6% | Neu (6 h): 16.6% | PT (6 h): 16 s | Plat (6 h): 119.2 x10_4/uL | RBC (6 h): 639 x10_4/ul | Ret (6 h): 7.8% | WBC (6 h): 84 x10_2/uL | KIDNEY_L (6 h): 1 g | KIDNEY_R (6 h): 1 g | KIDNEY_TOTAL (6 h): 1.9 g | LIVER (6 h): 9.2 g | A/G (6 h): 1.2 | ALP (6 h): 1322.6 IU/L | ALT (6 h): 36 IU/L | AST (6 h): 73.6 IU/L | BUN (6 h): 7.6 mg/dL | CRE (6 h): 0.1 mg/dL | Ca (6 h): 11.2 mg/dL | Cl (6 h): 107.4 meq/L | DBIL (6 h): 0.006 mg/dL | GLC (6 h): 178.4 mg/dL | IP (6 h): 10.2 mg/dL | K (6 h): 4.3 meq/L | LDH (6 h): 151.4 IU/L | Na (6 h): 140.6 meq/L | PL (6 h): 125.2 mg/dL | RALB (6 h): 2.9 g/dL | TBIL (6 h): 0.036 mg/dL | TC (6 h): 75 mg/dL | TG (6 h): 38.4 mg/dL | TP (6 h): 5.3 g/dL | gamma-GTP (6 h): 2 IU/L | TERMINAL_BW (9 h): 221.7 g | APTT (9 h): 23 s | Bas (9 h): 0% | Eos (9 h): 0.8% | Fbg (9 h): 313.2 mg/dL | Hb (9 h): 13.5 g/dL | Ht (9 h): 40.5% | Lym (9 h): 75% | MCH (9 h): 20.8 pg | MCHC (9 h): 33.3% | MCV (9 h): 62.5 fL | Mono (9 h): 2.2% | Neu (9 h): 21% | PT (9 h): 16.2 s | Plat (9 h): 120.5 x10_4/uL | RBC (9 h): 648.2 x10_4/ul | Ret (9 h): 7.3% | WBC (9 h): 73.1 x10_2/uL | KIDNEY_L (9 h): 1 g | KIDNEY_R (9 h): 1 g | KIDNEY_TOTAL (9 h): 2 g | LIVER (9 h): 8.5 g | A/G (9 h): 1.3 | ALP (9 h): 1235.8 IU/L | ALT (9 h): 26.8 IU/L | AST (9 h): 64 IU/L | BUN (9 h): 7.8 mg/dL | CRE (9 h): 0.1 mg/dL | Ca (9 h): 10.9 mg/dL | Cl (9 h): 108.6 meq/L | DBIL (9 h): 0.008 mg/dL | GLC (9 h): 180.2 mg/dL | IP (9 h): 9.5 mg/dL | K (9 h): 4.3 meq/L | LDH (9 h): 160 IU/L | Na (9 h): 139.8 meq/L | PL (9 h): 123.2 mg/dL | RALB (9 h): 2.9 g/dL | TBIL (9 h): 0.036 mg/dL | TC (9 h): 68.2 mg/dL | TG (9 h): 33.4 mg/dL | TP (9 h): 5.3 g/dL | gamma-GTP (9 h): 1.6 IU/L | TERMINAL_BW (24 h): 240 g | APTT (24 h): 21.2 s | Bas (24 h): 0% | Eos (24 h): 0.8% | Fbg (24 h): 339.6 mg/dL | Hb (24 h): 13 g/dL | Ht (24 h): 39% | Lym (24 h): 78.2% | MCH (24 h): 20.8 pg | MCHC (24 h): 33.4% | MCV (24 h): 62.1 fL | Mono (24 h): 2.6% | Neu (24 h): 17.2% | PT (24 h): 15.7 s | Plat (24 h): 113.2 x10_4/uL | RBC (24 h): 627.8 x10_4/ul | Ret (24 h): 6.6% | WBC (24 h): 86.7 x10_2/uL | KIDNEY_L (24 h): 1 g | KIDNEY_R (24 h): 1 g | KIDNEY_TOTAL (24 h): 2 g | LIVER (24 h): 11.4 g | A/G (24 h): 1.3 | ALP (24 h): 1398.4 IU/L | ALT (24 h): 41.2 IU/L | AST (24 h): 66.6 IU/L | BUN (24 h): 14 mg/dL | CRE (24 h): 0.1 mg/dL | Ca (24 h): 10.9 mg/dL | Cl (24 h): 106 meq/L | DBIL (24 h): 0 mg/dL | GLC (24 h): 186.8 mg/dL | IP (24 h): 7.5 mg/dL | K (24 h): 4 meq/L | LDH (24 h): 153.2 IU/L | Na (24 h): 143.4 meq/L | PL (24 h): 149.8 mg/dL | RALB (24 h): 3.1 g/dL | TBIL (24 h): 0.008 mg/dL | TC (24 h): 82 mg/dL | TG (24 h): 125.8 mg/dL | TP (24 h): 5.4 g/dL | gamma-GTP (24 h): 2 IU/L
